Measured values taken from PMC6683399, “Identification of a novel S6K1 inhibitor, rosmarinic acid methyl ester, for treating cisplatin-resistant cervical cancer” (BMC Cancer, 2019).

Target: T1, S6K1 (p70 S6K1, ribosomal protein S6 kinase 1) (Homo sapiens, UniProt P23443)
T1 construct: gene RPS6KB1; recombinant active S6K1 (R&D systems 896-KS)
Assay: in vitro kinase assay with recombinant S6K1 and GST-S6 (also H2B) substrate, […] ATP, immunoblot readout
Format: biochemical

T1 sequence (P23443 whole entry): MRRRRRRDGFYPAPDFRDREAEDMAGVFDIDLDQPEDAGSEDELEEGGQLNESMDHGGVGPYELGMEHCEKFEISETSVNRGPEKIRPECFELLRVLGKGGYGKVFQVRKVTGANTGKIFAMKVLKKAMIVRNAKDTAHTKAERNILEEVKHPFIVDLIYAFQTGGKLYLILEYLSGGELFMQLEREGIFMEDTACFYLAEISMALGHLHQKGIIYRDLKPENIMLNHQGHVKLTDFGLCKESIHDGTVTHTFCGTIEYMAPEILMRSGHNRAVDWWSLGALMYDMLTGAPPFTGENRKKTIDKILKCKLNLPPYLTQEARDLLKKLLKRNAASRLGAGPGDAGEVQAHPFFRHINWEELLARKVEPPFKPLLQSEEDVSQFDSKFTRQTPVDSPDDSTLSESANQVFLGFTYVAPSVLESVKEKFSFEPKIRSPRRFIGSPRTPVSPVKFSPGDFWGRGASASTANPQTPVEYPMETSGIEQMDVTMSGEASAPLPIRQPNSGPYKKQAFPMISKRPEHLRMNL

## COC(=O)[C@@H](Cc1ccc(O)c(O)c1)OC(=O)/C=C/c1ccc(O)c(O)c1 [RAME, rosmarinic acid methyl ester]
  in vitro kinase assay with recombinant S6K1 and GST-S6 (also H2B) substrate, 100: RAME inhibited the phosphorylation of S6 in dose-dependent manner (Fig. 2b)
